Results published in US12275731B2, “Azaindole inhibitors of wild-type and mutant forms of LRRK2” (DANA-FARBER CANCER INSTITUTE, INC., priority 2018, dated 2025).

Experiments:
Test in all cases: KinomeScan profiling
Assay type in all cases: binding
ACVR1 = molecular target: T1, ACVR1 (Homo sapiens, UniProt Q04771); settings: ACVR1, 1 μM; read-out: % control
T1 construct: purchased KinomeScan®
T1 sequence (Q04771 21-509): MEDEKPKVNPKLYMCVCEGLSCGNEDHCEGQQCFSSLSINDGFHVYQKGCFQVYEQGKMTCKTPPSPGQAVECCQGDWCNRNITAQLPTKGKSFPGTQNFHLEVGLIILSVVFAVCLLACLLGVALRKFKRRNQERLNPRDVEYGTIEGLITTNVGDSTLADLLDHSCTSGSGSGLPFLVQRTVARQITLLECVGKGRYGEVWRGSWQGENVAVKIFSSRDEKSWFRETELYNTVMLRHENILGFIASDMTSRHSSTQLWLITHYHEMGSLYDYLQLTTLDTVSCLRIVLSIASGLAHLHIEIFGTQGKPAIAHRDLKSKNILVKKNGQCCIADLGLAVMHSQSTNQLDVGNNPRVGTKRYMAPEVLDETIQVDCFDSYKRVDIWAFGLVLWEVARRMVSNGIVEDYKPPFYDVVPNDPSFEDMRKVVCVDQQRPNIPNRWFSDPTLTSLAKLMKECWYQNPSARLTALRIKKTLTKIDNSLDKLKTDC
In short: (§1)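 First, compounds in DMSO are added at 1 μM to each of 468 kinase assays. Next, RLU signals are normalised between positive control (0%) and DMSO (100%). Finally, kinases under 35% are flagged active.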

CSF1R-autoinhibited = molecular target: T2, CSF1R-autoinhibited (Homo sapiens, UniProt P07333); settings: read-out: % control
T2 sequence (P07333 539-972 limits assumed): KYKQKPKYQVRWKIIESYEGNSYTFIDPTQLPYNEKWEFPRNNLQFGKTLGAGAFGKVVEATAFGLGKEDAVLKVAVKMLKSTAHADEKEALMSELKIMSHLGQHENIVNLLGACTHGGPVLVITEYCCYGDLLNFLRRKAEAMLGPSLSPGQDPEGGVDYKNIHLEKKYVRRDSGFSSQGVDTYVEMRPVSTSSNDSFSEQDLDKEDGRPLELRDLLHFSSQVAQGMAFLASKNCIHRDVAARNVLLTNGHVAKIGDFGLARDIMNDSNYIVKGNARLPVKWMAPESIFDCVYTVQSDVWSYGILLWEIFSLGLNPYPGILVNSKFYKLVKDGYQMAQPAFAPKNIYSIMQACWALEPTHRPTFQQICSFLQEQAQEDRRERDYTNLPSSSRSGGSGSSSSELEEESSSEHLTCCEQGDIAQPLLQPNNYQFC
In short: as §1

IRAK3 = molecular target: T3, IRAK3 (Homo sapiens, UniProt Q9Y616); settings: IRAK3, 1 μM; read-out: % control
T3 construct: purchased KinomeScan®
T3 sequence (Q9Y616 1-596): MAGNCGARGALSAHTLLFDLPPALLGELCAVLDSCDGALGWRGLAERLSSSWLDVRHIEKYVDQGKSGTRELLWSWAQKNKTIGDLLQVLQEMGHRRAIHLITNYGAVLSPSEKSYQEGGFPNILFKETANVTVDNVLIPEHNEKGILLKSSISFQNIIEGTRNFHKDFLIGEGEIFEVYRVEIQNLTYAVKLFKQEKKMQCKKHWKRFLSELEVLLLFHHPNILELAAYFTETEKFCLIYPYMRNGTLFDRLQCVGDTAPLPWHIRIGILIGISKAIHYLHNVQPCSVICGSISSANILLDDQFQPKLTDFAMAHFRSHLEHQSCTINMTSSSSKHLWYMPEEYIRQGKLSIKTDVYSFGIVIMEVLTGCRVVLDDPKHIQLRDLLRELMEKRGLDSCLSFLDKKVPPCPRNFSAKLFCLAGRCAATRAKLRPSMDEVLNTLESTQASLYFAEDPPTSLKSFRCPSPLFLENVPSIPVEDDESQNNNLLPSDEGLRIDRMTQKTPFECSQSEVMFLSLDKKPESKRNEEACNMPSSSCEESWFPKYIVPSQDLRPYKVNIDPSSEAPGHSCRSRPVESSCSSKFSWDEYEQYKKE
In short: as §1

PDGFRA = PDGFRA (Homo sapiens, UniProt P16234); settings: read-out: % control
PDGFRA, sequence (P16234 24-1089): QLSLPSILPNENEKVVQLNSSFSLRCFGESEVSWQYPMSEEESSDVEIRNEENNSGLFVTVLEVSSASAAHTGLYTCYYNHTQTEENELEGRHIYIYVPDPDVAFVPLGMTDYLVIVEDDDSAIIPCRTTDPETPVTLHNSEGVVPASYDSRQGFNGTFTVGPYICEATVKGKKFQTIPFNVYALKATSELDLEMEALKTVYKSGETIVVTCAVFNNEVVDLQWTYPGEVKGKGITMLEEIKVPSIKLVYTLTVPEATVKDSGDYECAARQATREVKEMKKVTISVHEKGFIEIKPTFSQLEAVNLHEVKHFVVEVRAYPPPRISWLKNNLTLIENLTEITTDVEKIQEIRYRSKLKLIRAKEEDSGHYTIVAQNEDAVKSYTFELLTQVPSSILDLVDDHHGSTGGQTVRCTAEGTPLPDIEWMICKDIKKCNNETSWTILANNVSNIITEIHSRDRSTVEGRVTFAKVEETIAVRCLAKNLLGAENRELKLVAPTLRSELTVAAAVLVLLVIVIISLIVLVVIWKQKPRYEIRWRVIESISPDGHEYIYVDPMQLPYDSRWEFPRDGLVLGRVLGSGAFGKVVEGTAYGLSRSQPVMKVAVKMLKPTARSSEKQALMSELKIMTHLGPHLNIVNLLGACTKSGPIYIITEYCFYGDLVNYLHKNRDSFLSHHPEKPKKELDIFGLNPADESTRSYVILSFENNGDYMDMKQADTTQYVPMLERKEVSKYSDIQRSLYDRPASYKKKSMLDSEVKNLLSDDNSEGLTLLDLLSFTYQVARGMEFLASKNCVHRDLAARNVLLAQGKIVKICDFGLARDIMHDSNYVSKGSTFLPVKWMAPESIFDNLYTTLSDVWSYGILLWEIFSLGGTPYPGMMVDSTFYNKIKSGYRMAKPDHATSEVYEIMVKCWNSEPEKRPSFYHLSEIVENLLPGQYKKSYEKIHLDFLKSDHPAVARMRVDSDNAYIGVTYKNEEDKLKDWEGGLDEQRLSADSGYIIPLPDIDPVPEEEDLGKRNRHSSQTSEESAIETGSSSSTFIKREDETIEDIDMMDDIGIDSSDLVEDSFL
In short: as §1

TAOK1 = molecular target: T4, TAOK1 (Homo sapiens, UniProt Q7L7X3); settings: TAOK1, 1 μM; read-out: % control
T4 construct: purchased KinomeScan® (panel service)
T4 sequence (Q7L7X3 1-1001): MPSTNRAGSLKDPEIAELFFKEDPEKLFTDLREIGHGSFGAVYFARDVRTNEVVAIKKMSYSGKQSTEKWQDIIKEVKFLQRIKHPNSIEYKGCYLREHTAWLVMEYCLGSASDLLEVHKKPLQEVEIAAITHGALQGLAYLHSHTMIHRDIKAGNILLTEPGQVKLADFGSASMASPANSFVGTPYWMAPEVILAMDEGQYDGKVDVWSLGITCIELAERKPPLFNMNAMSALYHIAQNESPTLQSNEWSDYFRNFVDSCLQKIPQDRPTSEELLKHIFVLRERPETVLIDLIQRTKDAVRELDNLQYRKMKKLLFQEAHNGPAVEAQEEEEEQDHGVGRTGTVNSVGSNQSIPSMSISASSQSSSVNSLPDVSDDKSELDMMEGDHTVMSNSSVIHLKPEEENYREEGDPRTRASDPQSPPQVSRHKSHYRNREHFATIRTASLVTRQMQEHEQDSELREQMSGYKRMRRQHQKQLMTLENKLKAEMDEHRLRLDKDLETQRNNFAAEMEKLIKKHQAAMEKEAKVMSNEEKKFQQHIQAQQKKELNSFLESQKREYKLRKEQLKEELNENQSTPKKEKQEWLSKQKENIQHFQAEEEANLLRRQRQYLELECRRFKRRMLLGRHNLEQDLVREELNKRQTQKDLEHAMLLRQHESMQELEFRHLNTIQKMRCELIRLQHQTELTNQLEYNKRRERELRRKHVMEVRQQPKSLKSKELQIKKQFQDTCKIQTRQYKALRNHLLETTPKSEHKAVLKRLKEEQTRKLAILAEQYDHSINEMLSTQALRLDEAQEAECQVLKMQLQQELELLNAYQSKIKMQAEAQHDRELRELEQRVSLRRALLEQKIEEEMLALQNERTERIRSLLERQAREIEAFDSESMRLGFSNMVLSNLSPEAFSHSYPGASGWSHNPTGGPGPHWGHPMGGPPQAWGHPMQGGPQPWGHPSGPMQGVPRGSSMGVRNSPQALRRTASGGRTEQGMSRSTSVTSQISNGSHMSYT
In short: as §1

SMILES | remaining binding at 1 µM (ACVR1) | remaining binding at 1 µM (CSF1R-autoinhibited) | remaining binding at 1 µM (IRAK3) | remaining binding at 1 µM (PDGFRA) | remaining binding at 1 µM (TAOK1)
CNc1c(-c2cnn([C@H]3CCN(C(C)=O)C[C@@H]3F)c2)cnc2[nH]cc(Cl)c12 [Compound 77, 1-((3S,4S)-4-(4-(3-chloro-4-(methylamino)-1H-pyrrolo[2,3-b]pyridin-5-yl)-1H-pyrazol-1-yl)-3-fluoropiperidin-1-yl)ethan-1-one] | 100% | 30% | 40% | 11% | 100%
O=C(c1ccc(-c2cnc3[nH]cc(Cl)c3c2NC2CCCC2)cc1)N1CCC(N2CCOCC2)CC1 [Compound 101, (4-(3-chloro-4-(cyclopentylamino)-1H-pyrrolo[2,3-b]pyridin-5-yl)phenyl)(4-morpholinopiperidin-1-yl)methanone] | 100% | 3.2% | 37% | 92% | 99%
CNc1c(-c2ccc(C(=O)N3CCC(N4CCOCC4)CC3)cc2)cnc2[nH]cc(Cl)c12 [Compound 96, (4-(3-chloro-4-(methylamino)-1H-pyrrolo[2,3-b]pyridin-5-yl)phenyl)(4-morpholinopiperidin-1-yl)methanone] | 81% | 49% | 76% | 45% | 96%
